Target: ROCK2 (human) (UniProt O75116)
Test: Inhibition of ROCK2 Kinase Activity

ROCK2 (human), sequence (O75116 whole entry, looked up): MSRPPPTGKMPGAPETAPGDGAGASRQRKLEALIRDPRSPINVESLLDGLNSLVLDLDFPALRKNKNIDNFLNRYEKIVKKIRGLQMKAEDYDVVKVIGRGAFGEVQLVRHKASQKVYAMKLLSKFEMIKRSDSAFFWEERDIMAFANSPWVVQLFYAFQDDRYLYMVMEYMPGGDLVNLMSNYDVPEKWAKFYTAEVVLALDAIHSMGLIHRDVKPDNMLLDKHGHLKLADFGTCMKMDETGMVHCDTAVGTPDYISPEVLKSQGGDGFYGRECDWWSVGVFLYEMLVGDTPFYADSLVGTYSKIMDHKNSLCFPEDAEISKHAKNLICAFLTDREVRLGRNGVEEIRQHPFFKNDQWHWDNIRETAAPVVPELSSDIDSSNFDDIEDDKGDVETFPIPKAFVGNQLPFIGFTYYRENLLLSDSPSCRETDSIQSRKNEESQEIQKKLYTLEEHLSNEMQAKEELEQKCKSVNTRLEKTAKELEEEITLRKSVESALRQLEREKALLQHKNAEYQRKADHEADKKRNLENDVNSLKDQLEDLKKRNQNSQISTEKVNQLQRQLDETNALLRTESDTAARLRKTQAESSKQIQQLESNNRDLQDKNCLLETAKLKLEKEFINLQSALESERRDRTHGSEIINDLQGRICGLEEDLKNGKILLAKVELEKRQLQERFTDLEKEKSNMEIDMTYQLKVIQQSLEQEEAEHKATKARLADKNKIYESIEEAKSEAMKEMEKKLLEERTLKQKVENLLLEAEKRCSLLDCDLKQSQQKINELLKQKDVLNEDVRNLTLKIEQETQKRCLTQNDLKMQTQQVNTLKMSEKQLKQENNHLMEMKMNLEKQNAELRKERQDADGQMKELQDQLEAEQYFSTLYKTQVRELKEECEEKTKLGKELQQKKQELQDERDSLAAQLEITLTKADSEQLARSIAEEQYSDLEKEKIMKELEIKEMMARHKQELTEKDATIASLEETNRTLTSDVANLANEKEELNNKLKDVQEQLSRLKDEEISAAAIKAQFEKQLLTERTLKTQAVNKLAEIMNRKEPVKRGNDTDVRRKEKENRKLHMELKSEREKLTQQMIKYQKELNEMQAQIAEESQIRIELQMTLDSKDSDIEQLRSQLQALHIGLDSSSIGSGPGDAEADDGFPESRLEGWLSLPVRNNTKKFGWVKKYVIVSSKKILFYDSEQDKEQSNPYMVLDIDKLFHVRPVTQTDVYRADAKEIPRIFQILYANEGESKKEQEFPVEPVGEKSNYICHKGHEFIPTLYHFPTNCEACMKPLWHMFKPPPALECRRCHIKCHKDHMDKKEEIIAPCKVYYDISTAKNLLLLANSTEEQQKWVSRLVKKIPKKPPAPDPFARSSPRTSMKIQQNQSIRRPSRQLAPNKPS

Compound | IC50 [µM]
O=C(NCc1nc(-c2ccncc2)n[nH]1)c1ccc(-c2ccc(O)cc2)cc1 | > 5
O=C(NCc1nc(-c2ccncc2)n[nH]1)c1cnc(O)c(Cl)c1 | > 5
O=C(NCc1nc(-c2ccncc2)n[nH]1)c1cc(Cl)ccc1O | > 5
O=C(NCc1nc(-c2ccncc2)n[nH]1)c1ccc([N+](=O)[O-])c(O)c1 | ≤ 5
Cc1cccc(C(=O)NCc2c[nH]c(-c3ccncc3)n2)c1O | > 5
O=C(CCc1ccccc1O)NCc1nc(-c2ccncc2)n[nH]1 | > 5
COc1cccc(C(=O)NCc2nc(-c3ccncc3)no2)c1 | > 5
Cc1ccc(C(=O)NCc2nc(-c3ccncc3)n[nH]2)cc1Br | > 5
CCOC(=O)CC(=O)NCc1nc(-c2c[nH]c3ncccc23)n[nH]1 | > 5
O=C(O)c1ccc(C(=O)NCc2nc(-c3ccncc3)n[nH]2)cc1 | ≤ 5
COc1ccc(C(=O)NCc2nc(-c3ccncc3)n[nH]2)cc1C | > 5
O=C(CC1Cc2ccccc2C1)NCc1nc(-c2c[nH]c3ncccc23)n[nH]1 | > 5
Cc1cc(C(=O)NCc2nc(-c3ccncc3)n[nH]2)ccc1Br | > 5
CC(=O)NCC(=O)NCc1nc(-c2ccncc2)n[nH]1 | > 5
O=C(NCc1nc(-c2ccncc2)n[nH]1)c1ccc(F)c([N+](=O)[O-])c1 | > 5
CCC(C)C(NC(=O)OC(C)(C)C)C(=O)NCc1nc(-c2ccncc2)n[nH]1 (stereo unspecified) | > 5
O=C(Cc1cccc(O)c1)NCc1nc(-c2ccncc2)n[nH]1 | > 5
CC(=O)Nc1cccc(C(=O)NCc2nc(-c3ccncc3)n[nH]2)c1 | > 5
O=C(NCc1nc(-c2ccncc2)n[nH]1)c1cccc(Cl)c1[N+](=O)[O-] | ≤ 5
CC(C)(C)c1ccc(C(=O)NCc2nc(-c3ccncc3)n[nH]2)cc1 | > 5
CC(C)(C)C(=O)NCc1nc(-c2c[nH]c3ncccc23)n[nH]1 | > 5
O=C(NCc1nc(-c2c[nH]c3ncccc23)n[nH]1)C1CCCCC1 | > 5
O=C(NCc1nc(-c2ccncc2)n[nH]1)c1c2ccccc2cc2ccccc12 | > 5
O=C(NCc1nc(-c2ccncc2)n[nH]1)C1CCc2ccccc21 (stereo unspecified) | > 5
Cc1cc(C(=O)NCc2nc(-c3ccncc3)n[nH]2)cc(Cl)n1 | > 5
O=C(NCc1nc(-c2ccncc2)n[nH]1)c1ccccc1C(=O)c1ccc(O)cc1 | > 5

The next lines start with the values.

IC50 [µM] | Compound
> 5 | Cc1ccc(C(=O)NCc2nc(-c3c[nH]c4ncccc34)n[nH]2)c(C)c1
> 5 | O=C(NCc1nc(-c2c[nH]c3ncccc23)n[nH]1)c1ccccc1[N+](=O)[O-]
> 5 | O=C(NCc1nc(-c2c[nH]c3ncccc23)n[nH]1)c1cccc(I)c1
≤ 5 | O=C(NCc1nc(-c2c[nH]c3ncccc23)n[nH]1)c1cccs1
> 5 | O=C(NCc1nc(-c2c[nH]c3ncccc23)n[nH]1)c1ccncc1
≤ 5 | CS(=O)(=O)Nc1cccc(C(=O)NCc2nc(-c3c[nH]c4ncccc34)n[nH]2)c1
> 5 | O=C(Cc1ccc2c(c1)OCO2)NCc1nc(-c2c[nH]c3ncccc23)n[nH]1
> 5 | O=C(NCc1nc(-c2c[nH]c3ncccc23)n[nH]1)c1cccc([N+](=O)[O-])c1
> 5 | O=C(NCc1nc(-c2c[nH]c3ncccc23)n[nH]1)c1csc2ccccc12
> 5 | CC1=NN(c2ccc(C(=O)NCc3nc(-c4c[nH]c5ncccc45)n[nH]3)cc2)C(=O)C1
> 5 | O=C(NCc1nc(-c2c[nH]c3ncccc23)n[nH]1)c1ccc2cc(O)ccc2c1
> 5 | O=C(NCc1nc(-c2c[nH]c3ncccc23)n[nH]1)c1ccc([N+](=O)[O-])c(O)c1
> 5 | Cc1cccc(CCC(=O)NCc2nc(-c3c[nH]c4ncccc34)n[nH]2)c1
> 5 | O=C(NCc1nc(-c2c[nH]c3ncccc23)n[nH]1)c1cc(F)cc(F)c1
> 5 | Cc1ccc(C(=O)NCc2nc(-c3c[nH]c4ncccc34)n[nH]2)cc1

Source: the Kinase Knowledgebase extract (Sharma et al. 2016)
